Laboratory results taken from paper PMC8364350 (Nature ecology & evolution, 2020).

T1: HsCSAD (Homo sapiens, UniProt Q9Y600)
T1 sequence (Q9Y600 1-493): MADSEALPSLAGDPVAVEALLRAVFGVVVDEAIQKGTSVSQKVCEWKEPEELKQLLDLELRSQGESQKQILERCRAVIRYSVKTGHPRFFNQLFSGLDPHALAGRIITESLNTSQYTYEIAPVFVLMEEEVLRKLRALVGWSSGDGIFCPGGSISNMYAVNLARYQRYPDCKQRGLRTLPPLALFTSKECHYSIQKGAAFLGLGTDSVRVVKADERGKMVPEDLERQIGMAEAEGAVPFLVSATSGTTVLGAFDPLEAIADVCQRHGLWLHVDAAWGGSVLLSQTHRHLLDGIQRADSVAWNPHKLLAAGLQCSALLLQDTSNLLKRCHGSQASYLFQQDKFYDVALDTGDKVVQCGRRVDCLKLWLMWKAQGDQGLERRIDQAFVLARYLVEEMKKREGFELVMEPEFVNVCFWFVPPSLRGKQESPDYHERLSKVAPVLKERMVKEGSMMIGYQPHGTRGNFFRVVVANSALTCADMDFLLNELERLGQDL

T2: DrCSAD (Danio rerio, UniProt A0A8M1N2X8)
T2 sequence (A0A8M1N2X8 1-500): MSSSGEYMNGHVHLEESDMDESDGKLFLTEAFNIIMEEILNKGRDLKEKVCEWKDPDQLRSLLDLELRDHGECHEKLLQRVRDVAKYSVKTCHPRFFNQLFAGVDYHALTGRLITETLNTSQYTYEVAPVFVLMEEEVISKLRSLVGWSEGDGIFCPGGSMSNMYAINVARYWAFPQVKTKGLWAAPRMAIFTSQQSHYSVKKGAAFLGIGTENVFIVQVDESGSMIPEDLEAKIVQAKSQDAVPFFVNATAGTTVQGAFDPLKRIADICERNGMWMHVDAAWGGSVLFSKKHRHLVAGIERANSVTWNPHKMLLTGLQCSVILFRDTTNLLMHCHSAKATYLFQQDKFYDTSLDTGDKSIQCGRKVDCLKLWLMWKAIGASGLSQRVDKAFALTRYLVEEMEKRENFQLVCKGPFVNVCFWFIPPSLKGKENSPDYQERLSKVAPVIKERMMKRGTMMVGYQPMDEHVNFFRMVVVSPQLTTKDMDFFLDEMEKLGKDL

B1: GgCAD (Gallus gallus) (protein)
chain: MAEQSDLERPAVDGAAGEEFLRAAFQVLLEEAVRKGTDVAQKVCEWKEPHELRELLDLELRSHGEPAGRLLERCRDIIRYSVKTCHPRFFNQLFSGLDHHALAGRLLTETLNTSQYTYEIAPVFVLMEEVVLAKLRELVGWNSGDGIFCPGGSISNMYAMNVARFQRFPESRQQGSRALPRLVLFASEECHYSIQKGAAFLGIGTDNVVLVRADERGKMIPEELEKEIERVKSEGAVPFFVSATSGTTVLGAFDPLGPVADVCQRHGLWLHVDAAWGGSALLSRKHRQLLAGIERADSVAWNPHKMLTVGLQCSAFLLRDDSGLLQRCHGAGAAYLFQPDKFYDVMFDTGDKTVQCGRRVDCLKLWLLWKAVGSEGLEQRVDRAFACTSYLAAEMKRRDGFQLVLEPEFINLCFWFVPPSLRGQQGCTDFGPRLGKVAPAIKERMMKEGSMMVGYQPHGTRPNFFRQIVTSPAVTRADLDFFLDEIERLGCDL

Key:
HsCSAD = biological target: T1, HsCSAD; assay: 1H NMR product quantification, specific activity; assay type: biochemical; conditions: 5 min reaction stopped with 1 M HCl, pH 7.0, 25 C; preferred substrate
DrCSAD = biological target: T2, DrCSAD; assay: 1H NMR product quantification, specific activity; assay type: biochemical; conditions: 5 min reaction stopped with 1 M HCl, pH 7.0, 25 C; preferred substrate
[1] = substrate: N[C@@H](CS(=O)(=O)O)C(=O)O; assay: time-resolved 1H NMR, integrated Michaelis-Menten fit of progress curve; assay type: biochemical, Gallus gallus; conditions: 50 mM NaH2PO4 pH 7.0, 25 C, H2O:D2O 9:1, example time course

Row | Molecule | specific activity (HsCSAD) | specific activity (DrCSAD) | Km [1] [mM]
1 | N[C@@H](CS(=O)O)C(=O)O [CSA, cysteine sulfinic acid] | We confirmed the opposite preference for the CSA substrate in human CSAD | observed the same preference for CSA in a CSAD ortholog of a basal vertebrate | 
2 | B1 |  |  | 6.95 ± 3.23
